Laboratory results from patent US20050209278A1, “Piperidinyl- and piperazinyl-sulfonylmethyl hydroxamic acids and their use as protease inhibitors” (priority 2002, published 2005).

What was measured:
MMP-2 = molecular target: T1, MMP-2 (Homo sapiens, UniProt P08253); test: In vitro MMP inhibition, IC50 determination (fluorogenic substrate I); assay type: biochemical; settings: value in parenthesis; read-out: MMP-2 (IC-50)
T1 construct: made in house; host or cells: MMP-2-transfected p2AHT2 cells
T1 sequence (P08253 110-660): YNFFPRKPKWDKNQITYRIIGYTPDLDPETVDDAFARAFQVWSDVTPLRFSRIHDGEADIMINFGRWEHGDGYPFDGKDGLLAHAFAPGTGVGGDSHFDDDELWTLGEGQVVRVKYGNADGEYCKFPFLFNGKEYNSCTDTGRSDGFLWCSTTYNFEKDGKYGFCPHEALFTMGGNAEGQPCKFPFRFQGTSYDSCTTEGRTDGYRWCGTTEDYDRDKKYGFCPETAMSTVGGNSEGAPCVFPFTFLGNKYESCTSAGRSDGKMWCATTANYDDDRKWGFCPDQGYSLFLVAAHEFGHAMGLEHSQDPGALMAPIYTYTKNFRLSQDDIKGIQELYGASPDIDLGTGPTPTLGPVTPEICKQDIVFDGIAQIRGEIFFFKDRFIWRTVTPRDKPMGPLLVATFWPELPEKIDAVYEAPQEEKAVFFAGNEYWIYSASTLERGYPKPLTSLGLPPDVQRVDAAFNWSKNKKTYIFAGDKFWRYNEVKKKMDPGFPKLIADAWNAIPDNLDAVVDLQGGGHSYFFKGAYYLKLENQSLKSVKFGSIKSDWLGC
Description: (§1) Several hydroxamic acids and salts thereof were analyzed in in vitro assays to determine their ability to inhibit the MMP cleavage of peptide substrates. […] and IC50 constants were calculated from the assayed hydroxamic acid-MMP interactions.
(§2) Human recombinant MMP-1, MMP-2, MMP-9, MMP-13, and MMP-14 were used in this assay. All enzymes were prepared in Assignee's laboratories following usual laboratory procedures. Protocols for the preparation and use of these enzymes are available in the scientific literature. See, e.g., Enzyme Nomenclature (Academic Press, San Diego, Calif., 1992) (and the citations therein). See also, Freije et al., “Molecular cloning and expression of collagenase-3, a novel human matrix metalloproteinase produced by breast carcinomas,” J Biol. Chem., 269(24), 16766-16773 (1994).
The MMP-2 proenzyme was purified by gelatin Sepharose chromatography from MMP-2-transfected p2AHT2 cells provided by Dr. Gregory Goldberg of Washington University (St. Louis, Mo.).
(§3) All MMPs were activated using 4-aminophenylmercuric acetate (“APMA”, Sigma Chemical, St. Louis, Mo.) or trypsin. MMP-9 also was activated using human recombinant MMP-3 (purified in Assignee's laboratory following standard cloning and purification techniques).
(§4) Two fluorogenic, methoxycoumarin-containing polypeptide substrates were used in the MMP inhibition assays: [drawing 427] Here, “Dpa” is 3-(2,4-dinitrophenyl)-L-2,3-diaminopropionyl group, and “MCA” is 7-methoxycoumarin-4-yl acetyl. Substrate (I) was purchased from Baychem (Redwood City, Calif.), and substrate II was prepared Assignee's laboratory. Substrate I was used in the IC50 determination assays, while substrate II was used in the Ki determination assays. In the absence of MMP inhibitory activity, either substrate is cleaved at the Gly-Leu peptide bond. This cleavage separates the highly fluorogenic peptide from the 2,4-dinitrophenyl quencher, thus resulting in increase of fluorescent intensity.
(§5) The stock solutions of the assayed hydroxamic acids (or salts thereof) were prepared in 1% dimethyl sulfoxide (DMSO). These stock solutions were diluted in Buffer A (100 mM Tris-HCl, 100 mM NaCl, 10 mM CaCl2, 0.05% polyoxyethylene 23 lauryl ether, pH 7.5) to obtain solutions with different hydroxamic acid concentrations, i.e., assay solutions with different concentrations of the assayed MMP inhibitory compound. The experiment controls contained the same amount of Buffer A/DMSO as the assayed sample, but contained no hydroxamic acid (or salt thereof).
(§6) The assays from which the IC50 determinations were made were performed as follows. The MMPs were activated with either trypsin or APMA (4-aminophenylmercuric acetate, Sigma Chemical, St. Louis, Mo.). The assayed hydroxamic acid samples were incubated in Microfluor™ White Plates (Dynatech, Chantilly, Va.) and analyzed on a Perkin Elmer L550 plate reader (Norwalk, Conn.). The excitation wavelength was 328 nm, and the emission wavelength—415 nm. All samples (assayed hydroxamic acids and controls) were incubated in separate plates at room temperature in the presence of 4 μM of MMP substrate (I). As stated in the previous paragraph, samples containing varying concentrations of the same assayed hydroxamic acid were prepared. Inhibition was measured as a reduction in fluorescent intensity as a function of MMP inhibitor concentration.
The above protocols were used to determine IC50 constants and Ki values for the compounds in Examples 1-27 above. All values in Table 2 are given in nM units. The IC50 measurements are in parenthesis.

MMP-13 = molecular target: T2, MMP-13 (Homo sapiens, UniProt P45452); test: as above; assay type: biochemical; settings: value in parenthesis; read-out: MMP-13 (IC-50)
T2 construct: made in house; host or cells: baculovirus / insect cells
Description: as §1, §2
The MMP-13 was obtained as a proenzyme from a full-length cDNA clone using baculovirus, as described by V. A. Luckow, “Insect Cell Expression Technology,” Protein Engineering: Principles and Practice, pp. 183-218 (edited by J. L. Cleland et al., Wiley-Liss, Inc., 1996). The expressed proenzyme was first purified over a heparin agarose column, and then over a chelating zinc chloride column. The proenzyme was then activated by APMA for use in the assay. Further details on baculovirus expression systems may be found in, for example, Luckow et al., J. Virol., 67, 4566-79 (1993). See also, O'Reilly et al, Baculovirus Expression Vectors: A Laboratory Manual (W.H. Freeman and Co., New York, N.Y., 1992). See also, King et al., The Baculovirus Expression System: A Laboratory Guide (Chapman & Hall, London, England, 1992).
as §3, §4, §5
as §6, with “concentration. […]” for “concentration.”

IC50 (MMP-2) [nM]	IC50 (MMP-13) [nM]	SMILES
< 0.1	0.2	CCCCCCc1ccc(N2CCN(S(=O)(=O)C3(C(=O)NO)CCN(CCOC)CC3)CC2)cc1 [Example 199]
1.9	1	CCCC(C)Cc1ccc(N2CCN(S(=O)(=O)C3(C(=O)NO)CCN(CCOC)CC3)CC2)cc1 (stereo not drawn) [Example 189]
< 0.1	0.2	COCCN1CCC(C(=O)NO)(S(=O)(=O)N2CCN(c3ccc(OC(F)(F)F)cc3)CC2)CC1 [Example 202]
0.5	3.1	COCCN1CCC(C(=O)NO)(S(=O)(=O)N2CCN(c3ccc(C)cc3)CC2)CC1 [Example 194]
1.6	2.4	CCC(C)Cc1ccc(N2CCN(S(=O)(=O)C3(C(=O)NO)CCN(CCOC)CC3)CC2)cc1 (stereo not drawn) [Example 190]
1.3	3.6	COCCN1CCC(C(=O)NO)(S(=O)(=O)N2CCN(c3ccc(CC(C)C)cc3)CC2)CC1 [Example 192]
19.1	35.1	CCCCCc1ccc(N2CCN(S(=O)(=O)C3(C(=O)NO)CCOCC3)CC2)nn1 [Example 197]
< 0.1	0.6	CCCc1ccc(N2CCN(S(=O)(=O)C3(C(=O)NO)CCN(CCOC)CC3)CC2)cc1 [Example 200]
30.5	177	COCCN1CCC(C(=O)NO)(S(=O)(=O)N2CCN(c3nc4ccccc4o3)CC2)CC1 [Example 196]
0.2	1.9	CCc1ccc(N2CCN(S(=O)(=O)C3(C(=O)NO)CCN(CCOC)CC3)CC2)cc1 [Example 193]
< 0.1	< 1	COCCN1CCC(C(=O)NO)(S(=O)(=O)N2CCN(c3ccc(CCCCC(C)C)cc3)CC2)CC1 [Example 191]
< 0.1	0.5	O=C(NO)C1(S(=O)(=O)N2CCN(c3ccc(OC(F)(F)F)cc3)CC2)CCN(C2CC2)CC1 [Example 203]
< 0.1	0.8	COCCN1CCC(C(=O)NO)(S(=O)(=O)N2CCN(c3ccc(Br)cc3)CC2)CC1 [Example 201]
2.4	11.5	COCCN1CCC(C(=O)NO)(S(=O)(=O)N2CCN(c3ccccc3)CC2)CC1 [Example 195]
18.2	285	O=C(NO)C1(S(=O)(=O)N2CCN(c3ccc(Cl)nn3)CC2)CCOCC1 [Example 198]
